# According to patent US7338950B2, “Amide compounds as ion channel ligands and uses thereof” (Renovis, Inc., priority 2003, dated 2008):
# Experiments:
# [1] = molecular target: T1, VR1 receptor (capsaicin induced current in dorsal root ganglion (DRG) neurons) (Rattus norvegicus, UniProt O35433); assay: Whole-cell patch clamp electrophysiology, capsaicin induced current in DRG neurons; format: cell-based
# T1 construct: Dorsal root ganglion (DRG) neurons were recovered from either neonatal or adult rats; endogenous in cells; host or cells: primary rat dorsal root ganglion neurons
# T1 sequence (O35433 whole entry): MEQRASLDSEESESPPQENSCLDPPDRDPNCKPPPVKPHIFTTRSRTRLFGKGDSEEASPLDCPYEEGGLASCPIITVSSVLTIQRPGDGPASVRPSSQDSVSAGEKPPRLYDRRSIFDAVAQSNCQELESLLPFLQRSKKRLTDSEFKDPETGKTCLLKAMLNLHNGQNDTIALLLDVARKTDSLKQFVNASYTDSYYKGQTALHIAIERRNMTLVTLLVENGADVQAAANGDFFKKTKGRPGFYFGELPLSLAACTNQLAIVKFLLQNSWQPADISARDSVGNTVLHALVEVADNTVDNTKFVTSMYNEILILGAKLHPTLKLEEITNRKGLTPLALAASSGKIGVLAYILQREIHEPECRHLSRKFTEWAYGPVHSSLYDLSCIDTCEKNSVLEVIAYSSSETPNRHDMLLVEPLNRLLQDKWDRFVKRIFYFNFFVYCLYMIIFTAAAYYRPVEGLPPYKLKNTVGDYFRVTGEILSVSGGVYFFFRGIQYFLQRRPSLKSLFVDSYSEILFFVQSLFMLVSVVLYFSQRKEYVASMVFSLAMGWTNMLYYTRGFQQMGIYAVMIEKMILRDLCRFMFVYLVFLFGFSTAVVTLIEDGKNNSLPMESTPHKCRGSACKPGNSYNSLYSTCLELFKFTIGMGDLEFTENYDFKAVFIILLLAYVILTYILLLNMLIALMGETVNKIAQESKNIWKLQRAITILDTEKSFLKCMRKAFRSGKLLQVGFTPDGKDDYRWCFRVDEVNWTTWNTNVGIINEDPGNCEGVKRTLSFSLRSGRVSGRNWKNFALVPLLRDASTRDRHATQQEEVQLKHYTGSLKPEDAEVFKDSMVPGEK
# Experimental: Dorsal root ganglion (DRG) neurons were recovered from either neonatal or adult rats and plated onto poly-D-lysine coated glass coverslips. The plated neurons were transferred into a chamber to allow drug solutions to be added to the cells using a computer-controlled solenoid-valve based perfusion system. The cells were imaged using standard DIC optics. Cells were patched using finely-pulled glass electrodes. Voltage-clamp electrophysiology experiments were carried out using an Axon Instruments Multiclamp amplified controlled by pCLAMP8 software.
# The cells were placed into a whole-cell voltage clamp and help at a voltage of −80 mV while monitoring the membrane current in gap-free recording mode. 500 nM capsaicin was added for 30 seconds as a control. Test compounds at various concentrations at ranging from (10-1000 nM) were added to the cells for 1 minute prior to a 30 second capsaicin application. Differences between control experiments and drug positive capsaicin experiments were used to determine the efficacy of each test compound. All compounds that inhibited capsaicin induced current greater than 50% were considered positives.
# CYP1A2 = molecular target: T2, CYP1A2 (Homo sapiens, UniProt P05177); assay: Cytochrome p450 inhibition assessment, CYP1A2; format: biochemical; details: estimated, Hill equation fit
# T2 sequence (P05177 1-516): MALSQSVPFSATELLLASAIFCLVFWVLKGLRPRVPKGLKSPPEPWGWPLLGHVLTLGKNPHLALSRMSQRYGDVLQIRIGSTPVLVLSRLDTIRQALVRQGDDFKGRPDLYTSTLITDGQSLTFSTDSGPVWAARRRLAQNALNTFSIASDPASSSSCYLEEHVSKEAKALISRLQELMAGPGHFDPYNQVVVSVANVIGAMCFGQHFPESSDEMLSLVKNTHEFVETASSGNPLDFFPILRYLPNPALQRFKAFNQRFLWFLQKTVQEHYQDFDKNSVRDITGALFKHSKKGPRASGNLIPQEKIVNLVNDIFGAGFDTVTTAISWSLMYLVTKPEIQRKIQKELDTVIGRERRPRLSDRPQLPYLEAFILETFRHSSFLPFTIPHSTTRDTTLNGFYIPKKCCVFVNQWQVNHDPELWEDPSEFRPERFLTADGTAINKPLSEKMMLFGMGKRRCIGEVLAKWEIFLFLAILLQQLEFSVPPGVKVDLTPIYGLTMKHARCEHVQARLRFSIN
# Experimental: (§1) The ability of test compounds to inhibit five major human cytochrome p450 isozymes was evaluated. Cytochrome p450 inhibition assays were performed on 96-well microtiter assay plates according to the protocols described in Gentest P450 inhibition instruction manuals. The assays were performed in duplicate at 8 concentrations with the upper concentration of 100 μM followed by a 1:3 serial dilution. Reactions were initiated by the addition of 100 μL of enzyme/substrate mix to 100 μL of cofactor/serial dilution mix, and terminated by addition of 75 μL of a 4:1 acentonitrile: 0.5 M Tris base solution or by 2N NaOH for CYP3A4/DBF. Fluorescence was measured using a fluorescence plate reader (FLUOstar model 403, BMG Lab Technologies, Durham, N.C.). For reactions with inhibition greater than 50%, IC50 values were determined by fitting the data to the Hill equation using software GraphPad Prism (Version 4.02, GraphPad Software, San Diego, Calif.).
# [2] = Pharmacokinetic profile after intravenous and oral administration; format: in vivo; details: male, Sprague-Dawley, rat, plasma, rats
# Experimental: The pharmacokinetic profile of Compound 18 was evaluated following intravenous and oral administration in rats. Sprague-Dawley male rats obtained from Charles River, San Diego, Calif. were acclimated for 24 hours.
# Compound 18 was formulated at a concentration of 0.5 mg/mL for IV administration at a 1 mg/kg dose and 1 mg/mL for oral administration at a 5 mg/kg dose. All animals were weighed before dosing. The body weight was used to calculate the actual dose for each animal. The intravenous dose was administered through the jugular vein catheter in less than 1 minute. The oral dose volume was 1.5 mL for all PO rats administered through oral lavage.
# For IV dosing, blood samples were collected using a pre-heparinized syringe via the carotid artery catheter before dosing and at t=2, 5, 15, 30, 60, 120, 180, 360, and 480 minutes post dosing. For PO dosing, blood samples were collected using a pre-heparinized syringe via the carotid artery catheter before dosing and at t=5, 15, 30, 60, 120, 180, 360, and 480 minutes post dosing. 250 uL of blood was obtained at each time point from each animal. Equal volumes of 0.9% normal saline were replaced to prevent dehydration. The whole blood samples were maintained on ice until centrifugation. Blood samples were centrifuged at 14,000 rpm for 10 minutes at 4° C., and the upper plasma layer was transferred into a clean vial and store at −80° C.
# CYP2C19 = CYP2C19 (Homo sapiens, UniProt P33261); assay: Cytochrome p450 inhibition assessment, CYP2C19; format: biochemical; details: estimated, Hill equation fit
# CYP2C19, sequence (P33261 whole entry): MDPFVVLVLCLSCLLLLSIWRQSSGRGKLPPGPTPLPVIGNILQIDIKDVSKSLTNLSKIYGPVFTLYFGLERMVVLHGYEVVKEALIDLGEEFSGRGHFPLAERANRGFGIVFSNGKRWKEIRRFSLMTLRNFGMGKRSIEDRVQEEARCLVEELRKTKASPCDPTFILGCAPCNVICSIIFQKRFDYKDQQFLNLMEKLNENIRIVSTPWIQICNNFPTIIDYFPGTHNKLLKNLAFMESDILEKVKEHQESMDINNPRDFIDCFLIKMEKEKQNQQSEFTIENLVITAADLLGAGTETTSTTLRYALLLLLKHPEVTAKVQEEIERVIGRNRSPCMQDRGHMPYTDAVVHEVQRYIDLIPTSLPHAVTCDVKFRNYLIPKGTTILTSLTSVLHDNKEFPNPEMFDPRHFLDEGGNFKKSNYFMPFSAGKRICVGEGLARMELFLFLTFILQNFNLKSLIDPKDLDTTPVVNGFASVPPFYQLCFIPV
# Experimental: as §1
# [3] = Plasma protein binding, equilibrium dialysis, human plasma; format: in vitro ADME; details: human plasma (sodium citrate), pH 7.4, 37° C., at least 22 hours, read-out: human plasma protein binding (% Bound)
# Experimental: Membranes from Harvard/Amika with a molecular weight cutoff of 5,000 were rinsed with dH2O then placed in pH 7.4 PBS supplied by Gibco. The membranes were allowed to soak for 1 hour. A stock of the test article was pooled with Warfarin, Atropine at 2 mM in DMSO. The test article was then dosed into human plasma in sodium citrate, Rat Plasma, and Mouse Plasma to a final 10 μM concentration (0.5% DMSO v/v). The pre-soaked membranes were then placed into dialysis chambers. 500 μL of PBS was added to one side of the chamber, and 500 μL of the Matrix containing the test article was added to the other side of the chamber.
# The chambers were then placed into an enclosed, heated rocker, which was pre-warmed to 37° C. and allowed to reach equilibrium for at least 22 hours. After 22 hours both sides were sampled. 100 μL of the donor side was added to 500 μL of PBS. 100 μL of the PBS side was added to 20 μL of fresh matrix. Samples then were crashed with 1:1 Acetonitrile and centrifuged at 10,000 RPM for 10 minutes. […]
# Standards were prepared in a 1:5 plasma: PBS mixture at 5, 1.5, 0.5, 0.15, 0.05, 0.015 and 0.005 μM concentrations. […] Protein binding values were calculated as follows: % Bound=[(Concentration in Donor−Concentration in Receiver)/(Concentration in Donor)]×100. % Recovery=[(Concentration in donor+Concentration in Receiver)]/(Concentration in Normal Initial)]×100
# [4] = tested on: VR1 receptor (293 cells expressing capsaicin-insensitive VR1 receptor variants); assay: High throughput screening of VR1 antagonists using a calcium imaging assay (Fura2, pH 5.1 stimulus); details: 1 uM compound; inhibition of calcium ion influx;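 further: Fura2 ratiometric fluorescence read every 4 s over 3 min, response taken as peak ratio minus baseline before pre-treatment, compound pre-treatment preceding acid challenge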
# Text: A dual wavelength ratiometric dye, Fura2, was used as an indicator of relative levels of calcium ions in a 96 well format using a bench top scanning fluorometer with integrated fluidics and temperature control (Flex Station, Molecular Devices).
# A dual wavelength ratiometric dye, Fura2, was used as an indicator of relative levels of [Ca2+] in a 96 well format using a bench top scanning fluorometer with integrated fluidics and temperature control (Flex Station, Molecular Devices).
# 293 cells were grown on PDL coated 96-well black-walled plates, in the presence of a DMEM medium containing 5% Penstrep, 5% Glutamax, 200 ug/mL Hygromycin, 5 μg/mL Blasticide and 10% heat inactivated FBS. Prior to assay, the cells were loaded with 5 μg/mL Fura2 in normal saline solution at 37° C. for 40 minutes. Cells were then washed with normal saline to remove the dye.
# The assay consists of two stages; a pre-treatment phase followed by a treatment phase.
# 50 μl of a compound solution was added to the cells (Pre-treatment). Immediately following, 50 μl of the test compound in a saline solution at pH 5.1 was added. […] Changes in wavelength measurements were made throughout the course of the experiment in 4 second intervals over a period of 3 minutes. Responses were measured as peak fluorescence ratio after test compound addition minus baseline fluorescence ratio prior to pre-treatment and were calculated using SoftMaxPro softwareData were expressed as percentage inhibition calculated using Excel as follows:
# [5] = route not stated (IV 1 mg/kg, PO 5 mg/kg)
compound,measurement,setting,value
COc1ccc(CCNC(=O)c2ccc(-c3ncccc3Cl)cc2)cc1OC [Compound 18],inhibition at 0.1 µM,"[1]; DRG neuron, 100 nM, treatment time 20 seconds, 500 nM capsaicin, rat DRG neurons",< 75%
same,IC50,CYP1A2,97.5 µM
same,bioavailability,"[2]; PO 5 mg/kg vs IV 1 mg/kg, read-out: Oral Bioavailability (% F)",30.1%
same,Cmax,[2]; [5],1750 nM
same,Tmax,[2]; [5],3 h
same,clearance,"[2]; route not stated (IV 1 mg/kg, PO 5 mg/kg), read-out: Clearance (Cl) (converted)",8.83 mL/min/kg
same,Vd,"[2]; route not stated (IV 1 mg/kg, PO 5 mg/kg), read-out: Volume of distribution (Vd)",2.82 L/kg
same,half-life,"[2]; route not stated (IV 1 mg/kg, PO 5 mg/kg), read-out: half life (t½) (converted)",3.71 h
same,IC50,CYP2C19,26.9 µM
same,"fraction unbound at 22 h, 10 µM",[3],< 0.002
O=C(NCc1ccc(Cl)c(Cl)c1)c1ccc(-c2ncccc2Cl)cc1 [Compound 24],dose response of inhibiting a capsaicin induced calcium ion influx (FIG. 4),"[1]; 20 nM, 40 nM, 100 nM and 200 nM",increasing effectiveness
same,inhibition at 0.2 µM,"[1]; DRG neuron, 200 nM, treatment time 25 seconds, 500 nM capsaicin, rat DRG neurons",100%
COc1ccc(NC(=O)c2ccc(-c3ncccc3Cl)cn2)cc1O [Compound 1355],% Inhibition @ 1 uM,[4],++ (compound exhibited 25-50% inhibition of calcium ion influx induced by capsaicin stimulation)
COc1cc(NC(=O)c2ccc(-c3ncccc3Cl)cn2)cc(OC)c1OC [Compound 1356],% Inhibition @ 1 uM,[4],+ (compound exhibited 0-25% inhibition of calcium ion influx induced by capsaicin stimulation)
O=C(Nc1ccc2cn[nH]c2c1)c1ccc(-c2ncccc2Cl)cn1 [Compound 1357],% Inhibition @ 1 uM,[4],++++ (compound exhibited 75% or greater inhibition of calcium ion influx induced by capsaicin stimulation)
CCCOc1ccc(NC(=O)c2ccc(-c3ncccc3Cl)cn2)cc1 [Compound 1358],% Inhibition @ 1 uM,[4],+ (compound exhibited 0-25% inhibition of calcium ion influx induced by capsaicin stimulation)
O=C(Nc1ccc(OC(F)(F)F)cc1)c1ccc(-c2ncccc2Cl)cn1 [Compound 1360],% Inhibition @ 1 uM,[4],+ (compound exhibited 0-25% inhibition of calcium ion influx induced by capsaicin stimulation)
O=C(Nc1cccc(OC(F)(F)F)c1)c1ccc(-c2ncccc2Cl)cn1 [Compound 1361],% Inhibition @ 1 uM,[4],++ (compound exhibited 25-50% inhibition of calcium ion influx induced by capsaicin stimulation)
CC(C)Oc1cccc(NC(=O)c2ccc(-c3ncccc3Cl)cn2)c1 [Compound 1362],% Inhibition @ 1 uM,[4],+ (compound exhibited 0-25% inhibition of calcium ion influx induced by capsaicin stimulation)
O=C(Nc1ccc(F)c(F)c1)c1ccc(-c2ncccc2Cl)cn1 [Compound 1363],% Inhibition @ 1 uM,[4],++++ (compound exhibited 75% or greater inhibition of calcium ion influx induced by capsaicin stimulation)
CCOc1cccc(NC(=O)c2ccc(-c3ncccc3Cl)cn2)c1 [Compound 1364],% Inhibition @ 1 uM,[4],++++ (compound exhibited 75% or greater inhibition of calcium ion influx induced by capsaicin stimulation)
